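Five compound concentrations were applied to cells in 96-well plates for 48 hours; endpoints were derived by simple linear interpolation of the resulting dose-response curve. GI50: concentration for 50% inhibition of growth. Definition used: TGI = concentration required for complete inhibition of growth.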
Columns and labels:
Assay in all cases: inhibition of tumour cell growth, NCI panel, 48 h
SK-MEL-2 melanoma = system: SK-MEL-2 melanoma
HOP-62 NSCLC = system: HOP-62 NSCLC
HL-60(TB) leukemia = system: HL-60(TB) leukemia
HCT-15 colon = system: HCT-15 colon
BT-549 breast = system: BT-549 breast
TK-10 renal = system: TK-10 renal
OVCAR-4 ovarian = system: OVCAR-4 ovarian
T-47D breast = system: T-47D breast
K-562 leukemia = system: K-562 leukemia
HS 578T breast = system: HS 578T breast
A498 renal = system: A498 renal
U251 CNS = system: U251 CNS
MDA-MB-231 breast = system: MDA-MB-231 breast
CCRF-CEM leukemia = system: CCRF-CEM leukemia
SN12C renal = system: SN12C renal
NCI/ADR-RES ovarian = system: NCI/ADR-RES ovarian
MOLT-4 leukemia = system: MOLT-4 leukemia
SF-539 CNS = system: SF-539 CNS
MDA-MB-468 breast = system: MDA-MB-468 breast
NCI-H522 lung = system: NCI-H522 lung
NCI-H23 lung = system: NCI-H23 lung
SK-MEL-5 melanoma = system: SK-MEL-5 melanoma
SF-268 CNS = system: SF-268 CNS
HT29 colon = system: HT29 colon
OVCAR-3 ovarian = system: OVCAR-3 ovarian
UO-31 renal = system: UO-31 renal
UACC-62 melanoma = system: UACC-62 melanoma
CAKI-1 renal = system: CAKI-1 renal
OVCAR-8 ovarian = system: OVCAR-8 ovarian
SR leukemia = system: SR leukemia
IGROV1 ovarian = system: IGROV1 ovarian
M14 melanoma = system: M14 melanoma
COLO 205 colon = system: COLO 205 colon
SW-620 colon = system: SW-620 colon
KM12 colon = system: KM12 colon
RPMI-8226 leukemia = system: RPMI-8226 leukemia
MALME-3M melanoma = system: MALME-3M melanoma
MDA-MB-435 = system: MDA-MB-435
SK-OV-3 ovarian = system: SK-OV-3 ovarian
NCI-H226 lung = system: NCI-H226 lung
SNB-75 CNS = system: SNB-75 CNS
SK-MEL-28 melanoma = system: SK-MEL-28 melanoma
HCC-2998 colon = system: HCC-2998 colon
HCT-116 colon = system: HCT-116 colon
SNB-19 CNS = system: SNB-19 CNS
HOP-92 NSCLC = system: HOP-92 NSCLC
EKVX NSCLC = system: EKVX NSCLC
DU-145 prostate = system: DU-145 prostate
SF-295 CNS = system: SF-295 CNS
RXF 393 renal = system: RXF 393 renal
786-0 renal = system: 786-0 renal
PC-3 prostate = system: PC-3 prostate
LOX IMVI melanoma = system: LOX IMVI melanoma
MCF7 breast = system: MCF7 breast
UACC-257 melanoma = system: UACC-257 melanoma
NCI-H460 lung = system: NCI-H460 lung
ACHN renal = system: ACHN renal
A549 NSCLC = system: A549 NSCLC
OVCAR-5 ovarian = system: OVCAR-5 ovarian

Structure (SMILES): COCOc1cc2c(=O)c(C)c(C(=O)N[C@@H](Cc3ccccc3)C(O)C(=O)NCc3ccccc3)oc2cc1OC (stereo partly drawn)
- GI50 (SK-MEL-2 melanoma): > 100 µM
- TGI (SK-MEL-2 melanoma): > 100 µM
- GI50 (HOP-62 NSCLC): > 100 µM
- TGI (HOP-62 NSCLC): > 100 µM
- GI50 (HL-60(TB) leukemia): > 100 µM
- TGI (HL-60(TB) leukemia): > 100 µM
- GI50 (HCT-15 colon): > 100 µM
- TGI (HCT-15 colon): > 100 µM
- GI50 (BT-549 breast): > 100 µM
- TGI (BT-549 breast): > 100 µM
- GI50 (TK-10 renal): > 100 µM
- TGI (TK-10 renal): > 100 µM
- GI50 (OVCAR-4 ovarian): > 100 µM
- TGI (OVCAR-4 ovarian): > 100 µM
- GI50 (T-47D breast): > 100 µM
- TGI (T-47D breast): > 100 µM
- GI50 (K-562 leukemia): > 100 µM
- TGI (K-562 leukemia): > 100 µM
- GI50 (HS 578T breast): > 100 µM
- TGI (HS 578T breast): > 100 µM
- GI50 (A498 renal): > 100 µM
- TGI (A498 renal): > 100 µM
- GI50 (U251 CNS): > 100 µM
- TGI (U251 CNS): > 100 µM
- GI50 (MDA-MB-231 breast): > 100 µM
- TGI (MDA-MB-231 breast): > 100 µM
- GI50 (CCRF-CEM leukemia): > 100 µM
- TGI (CCRF-CEM leukemia): > 100 µM
- GI50 (SN12C renal): > 100 µM
- TGI (SN12C renal): > 100 µM
- GI50 (NCI/ADR-RES ovarian): > 100 µM
- TGI (NCI/ADR-RES ovarian): > 100 µM
- GI50 (MOLT-4 leukemia): > 100 µM
- TGI (MOLT-4 leukemia): > 100 µM
- GI50 (SF-539 CNS): 38.3 µM
- TGI (SF-539 CNS): > 100 µM
- GI50 (MDA-MB-468 breast): > 100 µM
- TGI (MDA-MB-468 breast): > 100 µM
- GI50 (NCI-H522 lung): > 100 µM
- TGI (NCI-H522 lung): > 100 µM
- GI50 (NCI-H23 lung): > 100 µM
- TGI (NCI-H23 lung): > 100 µM
- GI50 (SK-MEL-5 melanoma): > 100 µM
- TGI (SK-MEL-5 melanoma): > 100 µM
- GI50 (SF-268 CNS): > 100 µM
- TGI (SF-268 CNS): > 100 µM
- GI50 (HT29 colon): > 100 µM
- TGI (HT29 colon): > 100 µM
- GI50 (OVCAR-3 ovarian): > 100 µM
- TGI (OVCAR-3 ovarian): > 100 µM
- GI50 (UO-31 renal): > 100 µM
- TGI (UO-31 renal): > 100 µM
- GI50 (UACC-62 melanoma): > 100 µM
- TGI (UACC-62 melanoma): > 100 µM
- GI50 (CAKI-1 renal): > 100 µM
- TGI (CAKI-1 renal): > 100 µM
- GI50 (OVCAR-8 ovarian): > 100 µM
- TGI (OVCAR-8 ovarian): > 100 µM
- GI50 (SR leukemia): > 100 µM
- TGI (SR leukemia): > 100 µM
- GI50 (IGROV1 ovarian): > 100 µM
- TGI (IGROV1 ovarian): > 100 µM
- GI50 (M14 melanoma): 62.5 µM
- TGI (M14 melanoma): > 100 µM
- GI50 (COLO 205 colon): > 100 µM
- TGI (COLO 205 colon): > 100 µM
- GI50 (SW-620 colon): > 100 µM
- TGI (SW-620 colon): > 100 µM
- GI50 (KM12 colon): > 100 µM
- TGI (KM12 colon): > 100 µM
- GI50 (RPMI-8226 leukemia): > 100 µM
- TGI (RPMI-8226 leukemia): > 100 µM
- GI50 (MALME-3M melanoma): > 100 µM
- TGI (MALME-3M melanoma): > 100 µM
- GI50 (MDA-MB-435): > 100 µM
- TGI (MDA-MB-435): > 100 µM
- GI50 (SK-OV-3 ovarian): > 100 µM
- TGI (SK-OV-3 ovarian): > 100 µM
- GI50 (NCI-H226 lung): > 100 µM
- TGI (NCI-H226 lung): > 100 µM
- GI50 (SNB-75 CNS): 96.7 µM
- TGI (SNB-75 CNS): > 100 µM
- GI50 (SK-MEL-28 melanoma): > 100 µM
- TGI (SK-MEL-28 melanoma): > 100 µM
- GI50 (HCC-2998 colon): > 100 µM
- TGI (HCC-2998 colon): > 100 µM
- GI50 (HCT-116 colon): > 100 µM
- TGI (HCT-116 colon): > 100 µM
- GI50 (SNB-19 CNS): > 100 µM
- TGI (SNB-19 CNS): > 100 µM
- GI50 (HOP-92 NSCLC): > 100 µM
- TGI (HOP-92 NSCLC): > 100 µM
- GI50 (EKVX NSCLC): > 100 µM
- TGI (EKVX NSCLC): > 100 µM
- GI50 (DU-145 prostate): > 100 µM
- TGI (DU-145 prostate): > 100 µM
- GI50 (SF-295 CNS): > 100 µM
- TGI (SF-295 CNS): > 100 µM
- GI50 (RXF 393 renal): > 100 µM
- TGI (RXF 393 renal): > 100 µM
- GI50 (786-0 renal): > 100 µM
- TGI (786-0 renal): > 100 µM
- GI50 (PC-3 prostate): > 100 µM
- TGI (PC-3 prostate): > 100 µM
- GI50 (LOX IMVI melanoma): > 100 µM
- TGI (LOX IMVI melanoma): > 100 µM
- GI50 (MCF7 breast): > 100 µM
- TGI (MCF7 breast): > 100 µM
- GI50 (UACC-257 melanoma): > 100 µM
- TGI (UACC-257 melanoma): > 100 µM
- GI50 (NCI-H460 lung): > 100 µM
- TGI (NCI-H460 lung): > 100 µM
- GI50 (ACHN renal): > 100 µM
- TGI (ACHN renal): > 100 µM
- GI50 (A549 NSCLC): > 100 µM
- TGI (A549 NSCLC): > 100 µM
- GI50 (OVCAR-5 ovarian): > 100 µM
- TGI (OVCAR-5 ovarian): > 100 µM
